Measured values as given in US20070287699A1, “ANTIVIRAL AGENTS” (ViroBay, Inc., priority 2006, published 2007).

The compounds below were run on HCV replicon RNA replication in human Huh7 hepatoma cells (assay: HCV replicon assay (activity levels from either or both of HCV replicon assay 1, Huh7/Clone A RT-qPCR, and assay 2, Huh7 ET luc-ubi-neo/ET)). Details: Hepatitis C virus, Huh-7, either or both HCV replicon assays: Huh7/Clone A, 48 hours, 72 hours, Luc activity or RT-PCR, read-out: inhibit HCV replication at IC50 levels or estimated IC50 levels.
Format: cell-based, Hepatitis C virus (HCV)
How it was run: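 Huh7/Clone A subgenomic replicon cells treated 48 h at 37° C. with 7 serial dilutions in triplicate (0.5% DMSO final). Replicon RNA measured by TaqMan RT-qPCR on the neo gene, normalized to RiboGreen total RNA; untreated cells set as 100% for IC50.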

| Structure (SMILES) | IC50 |
| --- | --- |
| O=c1c(-c2noc(Cc3ccccc3)n2)cn(Cc2ccc(C(F)(F)F)cc2)c2cc(N3CCNCC3)c(F)cc12 [Compound 70, 3-(5-benzyl-[1,2,4]oxadiazol-3-yl)-6-fluoro-7-piperazin-1-yl-1-(4-trifluoromethyl-benzyl)-1H-quinolin-4-one] | < 500 nM |
| O=c1c(-c2noc(Cc3ccccc3)n2)cn(Cc2ccc(C(F)(F)F)cc2)c2cc(N3CCCNCC3)c(F)cc12 [Compound 71, 3-(5-benzyl-[1,2,4]oxadiazol-3-yl)-7-[1,4]diazepam-1-yl-6-fluoro-1-(4-trifluoromethyl-benzyl)-1H-quinolin-4-one] | < 500 nM |
| O=c1c(-c2noc(Cc3ccccc3)n2)cn(Cc2ccc(C(F)(F)F)cc2)c2cc(NCCN3CCOCC3)c(F)cc12 [Compound 72, 3-(5-benzyl-[1,2,4]oxadiazol-3-yl)-6-fluoro-7-(2-morpholin-4-yl-ethylamino)-1-(4-trifluoromethyl-benzyl)-1H-quinolin-4-one] | < 2000 nM |
| O=c1c(-c2noc(Cc3ccccc3)n2)cn(Cc2ccc(C(F)(F)F)cc2)c2cc(NCCOCCO)c(F)cc12 [Compound 73, 3-(5-benzyl-[1,2,4]oxadiazol-3-yl)-6-fluoro-7-[2-(2-hydroxy-ethoxy)-ethylamino]-1-(4-trifluoromethyl-benzyl)-1H-quinolin-4-one] | < 10000 nM |
| CN(C)c1cc2c(cc1F)c(=O)c(-c1noc(Cc3ccccc3)n1)cn2Cc1ccc(C(F)(F)F)cc1 [Compound 74, 3-(5-benzyl-[1,2,4]oxadiazol-3-yl)-7-dimethylamino-6-fluoro-1-(4-trifluoromethyl-benzyl)-1H-quinolin-4-one] | < 2000 nM |
| NCCNc1cc2c(cc1F)c(=O)c(-c1noc(Cc3ccccc3)n1)cn2Cc1ccc(C(F)(F)F)cc1 [Compound 75, 7-(2-amino-ethylamino)-3-(5-benzyl-[1,2,4]oxadiazol-3-yl)-6-fluoro-1-(4-trifluoromethyl-benzyl)-1H-quinolin-4-one] | > 10000 nM |
| O=C(O)Cc1ccc2c(c1)c(=O)c(-c1noc(Cc3ccccc3)n1)cn2Cc1ccc(C(F)(F)F)cc1F [Compound 76, [3-(5-benzyl-[1,2,4]oxadiazol-3-yl)-1-(2-fluoro-4-trifluoromethyl-benzyl)-4-oxo-1,4-dihydro-quinolin-6-yl]-acetic acid] | > 10000 nM |
| CN1CCN(c2cc3c(cc2F)c(=O)c(-c2noc(C(C)(C)c4ccccc4)n2)cn3Cc2ccc(C(F)(F)F)cc2F)CC1 [Compound 77, 6-fluoro-1-(2-fluoro-4-trifluoromethyl-benzyl)-3-[5-(1-methyl-1-phenyl-ethyl)-[1,2,4]oxadiazol-3-yl]-7-(4-methyl-piperazin-1-yl)-1H-quinolin-4-one] | < 500 nM |
| CN1CCN(c2cc3c(cc2F)c(=O)c(-c2noc(C4(c5ccccc5)CC4)n2)cn3Cc2ccc(C(F)(F)F)cc2F)CC1 [Compound 78, 6-fluoro-1-(2-fluoro-4-trifluoromethyl-benzyl)-7-(4-methyl-piperazin-1-yl)-3-[5-(1-phenyl-cyclopropyl)-[1,2,4]oxadiazol-3-yl]-1H-quinolin-4-one] | < 2000 nM |
| CN1CCN(c2cc3c(cc2F)c(=O)c(-c2noc(Cc4ccccc4)n2)cn3CCc2ccccc2)CC1 [Compound 79, 3-(5-benzyl-[1,2,4]oxadiazol-3-yl)-6-fluoro-7-(4-methyl-piperazin-1-yl)-1-phenethyl-1H-quinolin-4-one] | > 10000 nM |
| CN1CCN(c2cc3c(cc2F)c(=O)c(-c2noc(C(CCCC(N)=O)c4ccccc4)n2)cn3Cc2ccc(Cl)cc2)CC1 (centres unmarked) [Compound 80, 5-{3-[1-(4-chloro-benzyl)-6-fluoro-7-(4-methyl-piperazin-1-yl)-4-oxo-1,4-dihydro-quinolin-3-yl]-[1,2,4]oxadiazol-5-yl}-5-phenyl-pentanamide] | < 2000 nM |
| CN1CCN(c2cc3c(cc2F)c(=O)c(-c2noc(C(CCCC(=O)O)c4ccccc4)n2)cn3Cc2ccc(Cl)cc2)CC1 (centres unmarked) [Compound 81, 5-{3-[1-(4-chloro-benzyl)-6-fluoro-7-(4-methyl-piperazin-1-yl)-4-oxo-1,4-dihydro-quinolin-3-yl]-[1,2,4]oxadiazol-5-yl}-5-phenyl-pentanoic acid] | < 10000 nM |
| CN1CCN(c2cc3c(cc2F)c(=O)c(-c2noc(C(CCCCN)c4ccccc4)n2)cn3Cc2ccc(Cl)cc2)CC1 (centres unmarked) [Compound 82, 3-[5-(5-amino-1-phenyl-pentyl)-[1,2,4]oxadiazol-3-yl]-1-(4-chloro-benzyl)-6-fluoro-7-(4-methyl-piperazin-1-yl)-1H-quinolin-4-one] | < 10000 nM |
| O=c1c(-c2noc(Cc3ccccc3)n2)cn(Cc2ccc(C(F)(F)F)cc2)c2cc(N(CCO)CCO)c(F)cc12 [Compound 83, 3-(5-benzyl-[1,2,4]oxadiazol-3-yl)-7-[bis-(2-hydroxy-ethyl)-amino]-6-fluoro-1-(4-trifluoromethyl-benzyl)-1H-quinolin-4-one] | < 10000 nM |
| O=c1c(-c2noc(Cc3ccccc3)n2)cn(Cc2ccc(C(F)(F)F)cc2)c2cc(-n3ccnc3)c(F)cc12 [Compound 84, 3-(5-benzyl-[1,2,4]oxadiazol-3-yl)-6-fluoro-7-imidazol-1-yl-1-(4-trifluoromethyl-benzyl)-1H-quinolin-4-one] | < 2000 nM |
| CC(=O)NCCCCC(c1ccccc1)c1nc(-c2cn(Cc3ccc(Cl)cc3)c3cc(N4CCN(C)CC4)c(F)cc3c2=O)no1 (centres unmarked) [Compound 85, N-(5-{3-[1-(4-chloro-benzyl)-6-fluoro-7-(4-methyl-piperazin-1-yl)-4-oxo-1,4-dihydro-quinolin-3-yl]-[1,2,4]oxadiazol-5-yl}-5-phenyl-pentyl)-acetamide] | < 2000 nM |
| CN1CCN(c2cc3c(cc2F)c(=O)c(-c2noc(C(CCCCNC(=O)OC(C)(C)C)c4ccccc4)n2)cn3Cc2ccc(Cl)cc2)CC1 (centres unmarked) [Compound 86, tert-butyl (5-{3-[1-(4-chloro-benzyl)-6-fluoro-7-(4-methyl-piperazin-1-yl)-4-oxo-1,4-dihydro-quinolin-3-yl]-[1,2,4]oxadiazol-5-yl}-5-phenyl-pentyl)-carbamate] | < 10000 nM |
| O=C1CN(c2cc3c(cc2F)c(=O)c(-c2noc(Cc4ccc(F)cc4)n2)cn3Cc2ccc(C(F)(F)F)cc2F)CCN1 [Compound 87, 6-fluoro-3-[5-(4-fluoro-benzyl)-[1,2,4]oxadiazol-3-yl]-1-(2-fluoro-4-trifluoromethyl-benzyl)-7-(3-oxo-piperazin-1-yl)-1H-quinolin-4-one] | < 500 nM |
| CN1CCN(c2cc3c(cc2F)c(=O)c(-c2noc(C(CCCC#N)c4ccccc4)n2)cn3Cc2ccc(C(F)(F)F)cc2F)CC1 (centres unmarked) [Compound 88a, 5-{3-[6-fluoro-1-(2-fluoro-4-trifluoromethyl-benzyl)-7-(4-methyl-piperazin-1-yl)-4-oxo-1,4-dihydro-quinolin-3-yl]-[1,2,4]oxadiazol-5-yl}-5-phenyl-pentanenitrile] | < 500 nM |
| CN1CCN(c2cc3c(cc2F)c(=O)c(-c2noc(Cc4ccc(F)cc4)n2)cn3C2(c3ccc(C(F)(F)F)cc3)CC2)CC1 [Compound 88b, 6-fluoro-3-[5-(4-fluoro-benzyl)-[1,2,4]oxadiazol-3-yl]-7-(4-methyl-piperazin-1-yl)-1-[1-(4-trifluoromethyl-phenyl)-cyclopropyl]-1H-quinolin-4-one] | < 2000 nM |
